Reference: US20250145625A1, “PYRAZOLOPYRIMIDINE DERIVATIVE AND ANTICANCER PHARMACEUTICAL COMPOSITION CONTAINING SAME AS ACTIVE INGREDIENT” (KOREA RESEARCH INSTITUTE OF CHEMICAL TECHNOLOGY, priority 2021, published 2025)

Legend:
[1] = system: MDA-MB-231 triple negative breast cancer cell line; assay: Cytotoxicity in TTK-expressed MDA-MB-231 cells; type: cell-based; conditions: Homo sapiens, MDA-MB-231, 120 h, 5 days
Experimental: To determine the cytotoxicity of a compound represented by Chemical Formula 1 according to the present invention to MDA-MB-231 cells, the following test was conducted.
MDA-MB-231 triple negative breast cancer cell line purchased from ATCC was inoculated into each well of a 96-well plate at a volume of 90 μL containing 2,000 cells. Thereafter, an example compound of the present invention was added to respective wells at concentrations of 10 μM, 3 μM, 1 μM, 0.3 μM, 0.1 μM, and 0 μM, and the cells were cultured in a cell incubator at 37° C. for 5 days. Five days later, 10 μL of Cyto X solution (manufacturer: LPS Solution) was added to each of the wells, and the absorbance was measured at 450 nm using an Epoch microplate spectrophotometer (manufacturer: BioTek Instruments Inc.) according to the product's user guide. For cytotoxicity, the IC50 value for cytotoxicity of each compound was calculated by quantifying the number of cells using the measured value.

[2] = system: HCT116 colon cancer cell line; assay: Cytotoxicity in TTK-expressed HCT116 cells; type: cell-based; conditions: Homo sapiens, HCT-116, 120 h, 5 days
Experimental: To determine the cytotoxicity of a compound represented by Chemical Formula 1 according to the present invention to HCT116 cells, the following test was conducted.
HCT116 colon cancer cell line purchased from ATCC was inoculated into each well of a 96-well plate at a volume of 90 μL containing 2,000 cells. Thereafter, an example compound of the present invention was added to respective wells at concentrations of […], 3 μM, 1 μM, 0.3 μM, 0.1 μM, and 0 μM, and the cells were cultured in a cell incubator at 37° C. for 5 days. After 5 days, the number of cells was measured by CCK8 test method, and the cytotoxicity was determined by calculating the IC50 value for cytotoxicity of each compound.

[3] = molecular target: recombinant human TTK protein (Homo sapiens (Human), UniProt P33981); assay: Evaluation of TTK activity inhibitory ability (scintillation counting); type: biochemical; conditions: TTK inhibitory activity; read-out: IC50;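 further: reaction stopped with 0.5% phosphoric acid, spotted on P30 filter, TTK activity counted by scintillation, uninhibited no-compound wells taken as 100% control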
Sequence of recombinant human TTK protein (P33981 whole entry): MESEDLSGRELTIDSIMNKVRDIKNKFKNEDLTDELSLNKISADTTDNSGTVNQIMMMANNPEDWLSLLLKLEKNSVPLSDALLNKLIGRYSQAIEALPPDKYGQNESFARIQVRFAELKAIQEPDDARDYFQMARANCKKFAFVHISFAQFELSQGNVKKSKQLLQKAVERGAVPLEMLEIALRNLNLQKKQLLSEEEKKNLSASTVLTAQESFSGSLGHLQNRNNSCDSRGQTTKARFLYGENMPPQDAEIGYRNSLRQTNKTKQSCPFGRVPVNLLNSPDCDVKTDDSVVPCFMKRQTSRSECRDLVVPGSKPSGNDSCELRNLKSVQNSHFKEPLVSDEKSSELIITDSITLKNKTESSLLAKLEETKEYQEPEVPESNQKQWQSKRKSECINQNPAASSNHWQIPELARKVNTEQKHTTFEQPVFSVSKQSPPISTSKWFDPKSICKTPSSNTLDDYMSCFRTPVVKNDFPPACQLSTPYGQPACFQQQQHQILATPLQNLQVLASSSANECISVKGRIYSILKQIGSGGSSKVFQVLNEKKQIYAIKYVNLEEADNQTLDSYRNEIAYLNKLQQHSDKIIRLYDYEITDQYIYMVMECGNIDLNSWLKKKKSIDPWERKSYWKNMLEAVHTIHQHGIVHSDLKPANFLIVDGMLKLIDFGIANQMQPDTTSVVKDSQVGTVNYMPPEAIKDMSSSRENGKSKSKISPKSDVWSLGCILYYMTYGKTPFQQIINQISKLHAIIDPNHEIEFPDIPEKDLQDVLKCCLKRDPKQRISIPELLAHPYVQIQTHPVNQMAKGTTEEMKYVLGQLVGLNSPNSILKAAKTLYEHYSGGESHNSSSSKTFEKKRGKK
Experimental: To determine the ability of a compound represented by Chemical Formula 1 according to the present invention to inhibit TTK activity, the following experiment was conducted.
After that, the reaction was terminated by adding phosphoric acid to a concentration of 0.5%, and 10 of the reaction solution was dropped onto a P30 filter. […] The activity of TTK was measured through scintillation counting. The activity value from the group with no compound was set as 100% of control, and the degree of TTK inhibition by the compound was calculated.

| Compound | IC50 [1] [nM] | IC50 [2] [nM] | IC50 [3] [nM] |
| --- | --- | --- | --- |
| COc1cc(N2CCOCC2)ccc1Nc1nc(NC2CCOCC2)c2c(-c3cnn(C(F)F)c3)n[nH]c2n1 [Compound 8-24, 3-(1-(difluoromethyl)-1H-pyrazol-4-yl)-N^6-(2-methoxy-4-morpholinophenyl)-N^4-(tetrahydro-2H-pyran-4-yl)-1H-pyrazolo[3,4-d]pyrimidine-4,6-diamine] | 150 to 500 | 150 to 500 | < 30 |
| COc1cc(N2CCOCC2)ccc1Nc1nc(NC2CCCCC2)c2c(-c3ccco3)n[nH]c2n1 [Compound 8-14, N^4-cyclohexyl-3-(furan-2-yl)-N^6-(2-methoxy-4-morpholinophenyl)-1H-pyrazolo[3,4-d]pyrimidine-4,6-diamine] | 150 to 500 | 150 to 500 | 30 to 100 |
| COc1cc(N2CCOCC2)ccc1Nc1nc(NC2CCCCC2)c2c(-c3cnn(C)c3)n[nH]c2n1 [Compound 8-7, N^4-cyclohexyl-N^6-(2-methoxy-4-morpholinophenyl)-3-(1-methyl-1H-pyrazol-4-yl)-1H-pyrazolo[3,4-d]pyrimidine-4,6-diamine] | 150 to 500 | 500 to 1000 | 100 to 300 |
| COc1cc(N2CCOCC2)ccc1Nc1nc(NC2CCCCC2)c2c(-c3cn(C)cn3)n[nH]c2n1 [Compound 8-19, N^4-cyclohexyl-N^6-(2-methoxy-4-morpholinophenyl)-3-(1-methyl-1H-imidazol-4-yl)-1H-pyrazolo[3,4-d]pyrimidine-4,6-diamine] | 150 to 500 | 500 to 1000 | 30 to 100 |
| COc1cc(N2CCOCC2)ccc1Nc1nc(NC2CCOCC2)c2c(-c3ccncc3)n[nH]c2n1 [Compound 8-28, N^6-(2-methoxy-4-morpholinophenyl)-3-(pyridin-4-yl)-N^4-(tetrahydro-2H-pyran-4-yl)-1H-pyrazolo[3,4-d]pyrimidine-4,6-diamine] | 150 to 500 | 150 to 500 | < 30 |
| COc1cc(C(=O)N2CCN(C)CC2)ccc1Nc1nc(NC2CCCCC2)c2c(-c3cnn(C)c3)n[nH]c2n1 [Compound 11-5, (4-((4-(cyclohexylamino)-3-(1-methyl-1H-pyrazol-4-yl)-1H-pyrazolo[3,4-d]pyrimidin-6-yl)amino)-3-methoxyphenyl)(4-methylpiperazin-1-yl)methanone] | 500 to 1000 | 150 to 500 | 30 to 100 |
| CNC(=O)c1ccc(Nc2nc(NC3CCCCC3)c3c(-c4cnn(C)c4)n[nH]c3n2)c(OC)c1 [Compound 11-3, 4-((4-(cyclohexylamino)-3-(1-methyl-1H-pyrazol-4-yl)-1H-pyrazolo[3,4-d]pyrimidin-6-yl)amino)-3-methoxy-N-methylbenzamide] | < 150 | 150 to 500 | < 30 |
| COc1cc(C(=O)N2CCOCC2)ccc1Nc1nc(NC2CCCCC2)c2c(-c3cnn(C)c3)n[nH]c2n1 [Compound 11-4, (4-((4-(cyclohexylamino)-3-(1-methyl-1H-pyrazol-4-yl)-1H-pyrazolo[3,4-d]pyrimidin-6-yl)amino)-3-methoxyphenyl)(morpholino)methanone] | 150 to 500 | 150 to 500 | < 30 |
| COc1cc(N2CCOCC2)ccc1Nc1nc(NC2CCOCC2)c2c(-c3cnoc3)n[nH]c2n1 [Compound 8-21, 3-(Isoxazol-4-yl)-N^6-(2-methoxy-4-morpholinophenyl)-N^4-(tetrahydro-2H-pyran-4-yl)-1H-pyrazolo[3,4-d]pyrimidine-4,6-diamine] | 500 to 1000 | 500 to 1000 | 30 to 100 |
| COc1cc(N2CCOCC2)ccc1Nc1nc(NC2CCCCC2)c2c(-c3ccn(C)n3)n[nH]c2n1 [Compound 8-13, N^4-cyclohexyl-N^6-(2-methoxy-4-morpholinophenyl)-3-(1-methyl-1H-pyrazol-3-yl)-1H-pyrazolo[3,4-d]pyrimidine-4,6-diamine] | 500 to 1000 | 500 to 1000 | < 30 |
| COc1cc(N2CCOCC2)ccc1Nc1nc(NC2CCOCC2)c2c(-c3ncco3)n[nH]c2n1 [Compound 8-22, N^6-(2-methoxy-4-morpholinophenyl)-3-(oxazol-2-yl)-N^4-(tetrahydro-2H-pyran-4-yl)-1H-pyrazolo[3,4-d]pyrimidine-4,6-diamine] | 500 to 1000 | < 150 | < 30 |
| COc1cc(N2CCOCC2)ccc1Nc1nc(NCC2CCCO2)c2c(-c3cnoc3)n[nH]c2n1 (stereo not drawn) [Compound 8-35, 3-(Isoxazol-4-yl)-N^6-(2-methoxy-4-morpholinophenyl)-N^4-((tetrahydrofuran-2-yl)methyl)-1H-pyrazolo[3,4-d]pyrimidine-4,6-diamine] | > 1000 | > 1000 | < 30 |
| COc1cc(N2CCOCC2)ccc1Nc1nc(NC2CCCCC2)c2c(-c3cccc(NS(C)(=O)=O)c3)n[nH]c2n1 [Compound 8-6, N-(3-(4-(cyclohexylamino)-6-((2-methoxy-4-morpholinophenyl)amino)-1H-pyrazolo[3,4-d]pyrimidin-3-yl)phenyl)methanesulfonamide] | > 1000 | > 1000 | 30 to 100 |
| COc1cc(-c2nncn2C)ccc1Nc1nc(NC2CCCCC2)c2c(-c3cnn(C)c3)n[nH]c2n1 [Compound 11-2, N^4-cyclohexyl-N^6-(2-methoxy-4-(4-methyl-4H-1,2,4-triazol-3-yl)phenyl)-3-(1-methyl-1H-pyrazol-4-yl)-1H-pyrazolo[3,4-d]pyrimidine-4,6-diamine] | < 150 | < 150 | < 30 |
| COc1cc(N2CCOCC2)ccc1Nc1nc(NC2CCCCC2)c2c(-c3cn(C)nn3)n[nH]c2n1 [Compound 21-2, N^4-cyclohexyl-N^6-(2-methoxy-4-morpholinophenyl)-3-(1-methyl-1H-1,2,3-triazol-4-yl)-1H-pyrazolo[3,4-d]pyrimidine-4,6-diamine] | < 150 | < 150 | < 30 |
| COc1cc(N2CCOCC2)ccc1Nc1nc(NC2CCCCC2)c2c(-c3ccc4nc(C)oc4c3)n[nH]c2n1 [Compound 8-18, N^4-cyclohexyl-N^6-(2-methoxy-4-morpholinophenyl)-3-(2-methylbenzooxazol-6-yl)-1H-pyrazolo[3,4-d]pyrimidine-4,6-diamine] | 150 to 500 | < 150 | 30 to 100 |
